Measurements taken from patent US20220324835A1 (Nurix Therapeutics, Inc., priority 2018, published 2022).

Legend:
Assay type in all cases: cell-based
[1] = test system: primary human total T-cells; experiment: T-cell activation assessed by CD69 expression
Source text: (§1) Peripheral blood mononuclear cells (PBMC) were obtained either: 1) by using Ficoll-Paque™ (GE Healthcare) for separation of peripheral blood hematopoietic cells from buffy coats of healthy human donors; or 2) directly from FeukoPak donations. Total human primary T-cells were isolated from the PMBCs utilizing negative selection with commercial kits following the manufacturer's protocol (Miltenyi Catalog #130-096-535 (i.e., cocktail of antibodies against surface markers CD14, CD15, CD16, CD19, CD34, CD36, CD56, CD123 and CD235a are incubated with the PBMCs before passing the samples by magnetic beads for removal of cells expressing those surface markers) or StemCells Catalog #17951) to yield >95% CD3+ cells as assessed by flow cytometry. For measurement of cell proliferation, cells were labeled with Cell Trace Violet (Invitrogen) following manufacturer's protocol prior to activation by stimulation with anti-CD3 antibody alone or in combination with anti-CD28 antibody. The Cbl-b inhibitor was added to 1×10^5 cells per well at multiple concentrations (e.g., 10 μM, 1.11 μM, or 0.123 μM) with a final DMSO concentration of <0.1%. The plate was incubated for one hour at 37° C. in 5% CO2. Following incubation with the Cbl-b inhibitor, primary human total T-cells were stimulated with either plate bound anti-CD3 antibody (OKT3) alone or plate bound anti-CD3 antibody (OKT3) with soluble anti-CD28 antibody (28.2) (Life Technologies). To prepare plates with plate bound anti-CD3 antibody (OKT3), 96-well round bottom tissue culture plates were coated with 100 μl of anti-CD3 antibody (OKT3) at 10 μg/mL for 4 hours at 37° C. 5% CO2 in phosphate buffered saline (PBS). The plates were washed with PBS prior to adding the cells with or without soluble anti-CD28 antibody (28.2) to each well at a final concentration of 5 μg/mL. Cells were stimulated for 48 hours prior to harvesting the cell free supernatant and staining the cell population for surface marker assessment by flow cytometry. Supernatants were analyzed for cytokine secretion (e.g., GM-CSF, IFNγ and TNFα) by ELISA (R&D Systems, Peprotech or Life Technologies) or Luminex multiplex kits (Procarta Life Technologies) following manufacturer's protocol. Cells were stained with anti-CD69 (BD Biosciences) to assess levels of surface markers of activation. Proliferation was measured by flow cytometry and data was analyzed with FlowJo v7.6.5 or v10. Readouts were reported as fold change over baseline. In some embodiments, baseline was the measurement obtained from total human T-cells stimulated with anti-CD3 antibody alone, wherein the cells were not incubated with a Cbl-b inhibitor. In some embodiments, baseline was the measurement obtained from total human T-cells stimulated with anti-CD3 antibody and anti-CD28 antibody, where the cells were not incubated with a Cbl-b inhibitor.
(§2) Cbl-b inhibitors were tested to determine their ability to induce or enhance secretion of cytokines from T-cells (e.g., GM-CSF, IFNγ and TNFα) and/or surface expression of cell surface markers on T-cells (e.g., CD69) that is indicative of T-cell activation. Cbl-b inhibitors were also tested to determine their ability to induce or enhance T-cell proliferation. Cbl-b inhibitors were tested for their effects on T-cell activation in the presence of costimulation and where conditions were suboptimal for priming.
(§3) Readouts for T-cell activation were reported as fold change over baseline. Baseline for this study was the measurement obtained from total human T-cells stimulated with anti-CD3 antibody alone or anti-CD3 antibody in combination with soluble anti-CD28 antibody, where the cells were not incubated with a Cbl-b inhibitor. For T-cells stimulated with anti-CD3/anti-CD28 or with anti-CD3 alone changes greater than 1,2-fold over baseline for % positive CD69 staining and greater than 2-fold over baseline for % total proliferating cells were considered a significant and positive response (Table 4a). […]

[2] = test system: primary human total T-cells; experiment: T-cell activation assessed by cytokine secretion (GM-CSF, IFNγ, TNFα)
Source text: as §1, §2, §3

[3] = test system: primary human total T-cells; experiment: T-cell activation assessed by cell proliferation (Cell Trace Violet)
Source text: as §1, §2, §3

[4] = CD3/CD28 stimulation, CD4 T-cells, read-out: % CD69+ (CD4)
[5] = CD3/CD28 stimulation, CD8 T-cells, read-out: % CD69+ (CD8)
[6] = CD3 alone stimulation, CD4 T-cells, read-out: % CD69+ (CD4)
[7] = CD3 alone stimulation, CD8 T-cells, read-out: % CD69+ (CD8)
[8] = CD3/CD28 stimulation, read-out: GM-CSF secretion
[9] = CD3/CD28 stimulation, read-out: IFNγ secretion
[10] = CD3/CD28 stimulation, read-out: TNFα secretion
[11] = CD3 alone stimulation, read-out: GM-CSF secretion
[12] = CD3 alone stimulation, read-out: IFNγ secretion
[13] = CD3 alone stimulation, read-out: TNFα secretion
[14] = CD3/CD28 stimulation, CD4 T-cells, read-out: % CP (cell proliferation) (CD4)
[15] = CD3/CD28 stimulation, CD8 T-cells, read-out: % CP (cell proliferation) (CD8)
[16] = CD3 alone stimulation, CD8 T-cells, read-out: % CP (cell proliferation) (CD8)

Structure (SMILES) | fold induction at 1.11 µM [1, 4] | fold induction at 10 µM [1, 4] | fold induction at 1.11 µM [1, 5] | fold induction at 10 µM [1, 5] | fold induction at 1.11 µM [1, 6] | fold induction at 10 µM [1, 6] | fold induction at 1.11 µM [1, 7] | fold induction at 10 µM [1, 7] | fold induction at 1.11 µM [2, 8] | fold induction at 1.11 µM [2, 9] | fold induction at 1.11 µM [2, 10] | fold induction at 10 µM [2, 8] | fold induction at 10 µM [2, 9] | fold induction at 10 µM [2, 10] | fold induction at 1.11 µM [2, 11] | fold induction at 1.11 µM [2, 12] | fold induction at 1.11 µM [2, 13] | fold induction at 10 µM [2, 11] | fold induction at 10 µM [2, 12] | fold induction at 10 µM [2, 13] | other results
C[C@H](Cc1nncn1C)c1cccc(NC(=O)c2cccc(C(F)(F)F)n2)c1 [Compound 183a, (R)-N-(3-(1-(4-methyl-4H-1,2,4-triazol-3-yl)propan-2-yl)phenyl)-6-(trifluoromethyl)picolinamide] | 1.2 to 1.4 | 1.4 to 1.6 | 1.2 to 1.4 | 1.2 to 1.4 | 1.4 to 1.6 | > 1.6 | 1.2 to 1.4 | 1.4 to 1.6 | 2.01 to 4 | 2.01 to 3 | 2.01 to 4 | > 4 | > 4 | 2.01 to 4 | 1.51 to 2 | 2.01 to 3 | ≤ 1.5 | 2.01 to 4 | > 4 | 1.51 to 2 | fold induction at 1.11 µM [3, 14]: 3.01 to 4; fold induction at 10 µM [3, 14]: > 4; fold induction at 1.11 µM [3, 15]: 2.01 to 3; fold induction at 10 µM [3, 15]: > 4; fold induction at 1.11 µM [3, 16]: 3.01 to 4; fold induction at 10 µM [3, 16]: > 4
Cc1cc(C(=O)Nc2cccc([C@H](C)Cc3nncn3C)c2)nc(C2CC2)n1 [Compound 195, (R)-2-cyclopropyl-6-methyl-N-(3-(1-(4-methyl-4H-1,2,4-triazol-3-yl)propan-2-yl)phenyl)pyrimidine-4-carboxamide] | ≤ 1.2 | > 1.6 | ≤ 1.2 | 1.2 to 1.4 | ≤ 1.2 | > 1.6 | ≤ 1.2 | 1.4 to 1.6 | > 4 | 2.01 to 3 | 2.01 to 4 | > 4 | > 4 | > 4 | 2.01 to 4 | 2.01 to 3 | 1.51 to 2 | 2.01 to 4 | > 4 | 1.51 to 2 | fold induction at 1.11 µM [3, 14]: < 2; fold induction at 10 µM [3, 14]: > 4; fold induction at 1.11 µM [3, 15]: < 2; fold induction at 10 µM [3, 15]: > 4; fold induction at 1.11 µM [3, 16]: < 2; fold induction at 10 µM [3, 16]: > 4
C[C@H](Cc1nncn1C)c1cccc(N2Cc3c(cccc3C(F)(F)F)C2=O)c1 [Compound 255a, (R)-2-(3-(1-(4-methyl-4H-1,2,4-triazol-3-yl)propan-2-yl)phenyl)-4-(trifluoromethyl)isoindolin-1-one] | ≤ 1.2 | 1.2 to 1.4 | ≤ 1.2 | 1.2 to 1.4 | ≤ 1.2 | ≤ 1.2 | ≤ 1.2 | ≤ 1.2 | ≤ 1.5 | 3.01 to 4 | ≤ 1.5 | 1.51 to 2 | > 4 | 1.51 to 2 | ≤ 1.5 | < 2 | ≤ 1.5 | ≤ 1.5 | < 2 | ≤ 1.5 | fold induction at 1.11 µM [3, 14]: < 2; fold induction at 10 µM [3, 14]: 3.01 to 4; fold induction at 1.11 µM [3, 15]: < 2; fold induction at 10 µM [3, 15]: 2.01 to 3; fold induction at 1.11 µM [3, 16]: < 2; fold induction at 10 µM [3, 16]: < 2
C[C@H](Cc1nncn1C)c1cccc(NC(=O)c2n[nH]c3c2CCC3)c1 [Compound 313, (R)-N-(3-(1-(4-Methyl-4H-1,2,4-triazol-3-yl)propan-2-yl)phenyl)-1,4,5,6-tetrahydrocyclopenta[c]pyrazole-3-carboxamide] | 1.4 to 1.6 | 1.2 to 1.4 | 1.2 to 1.4 | 1.2 to 1.4 | > 1.6 | 1.2 to 1.4 | 1.4 to 1.6 | ≤ 1.2 | ≤ 1.5 | < 2 | ≤ 1.5 | 2.01 to 4 | 2.01 to 3 | 2.01 to 4 | ≤ 1.5 | 2.01 to 3 | ≤ 1.5 | 1.51 to 2 | < 2 | ≤ 1.5 | fold induction at 1.11 µM [3, 14]: > 4; fold induction at 10 µM [3, 14]: > 4; fold induction at 1.11 µM [3, 15]: 3.01 to 4; fold induction at 10 µM [3, 15]: 2.01 to 3; fold induction at 1.11 µM [3, 16]: > 4; fold induction at 10 µM [3, 16]: 2.01 to 3
